Target: T1, PepS (Shewanella sp. E525-6, UniProt A0A140CQI1)
T1 construct: mature N-terminus L17-T-A-C-N21 (16-residue signal peptide removed)
T1 sequence (A0A140CQI1 17-694): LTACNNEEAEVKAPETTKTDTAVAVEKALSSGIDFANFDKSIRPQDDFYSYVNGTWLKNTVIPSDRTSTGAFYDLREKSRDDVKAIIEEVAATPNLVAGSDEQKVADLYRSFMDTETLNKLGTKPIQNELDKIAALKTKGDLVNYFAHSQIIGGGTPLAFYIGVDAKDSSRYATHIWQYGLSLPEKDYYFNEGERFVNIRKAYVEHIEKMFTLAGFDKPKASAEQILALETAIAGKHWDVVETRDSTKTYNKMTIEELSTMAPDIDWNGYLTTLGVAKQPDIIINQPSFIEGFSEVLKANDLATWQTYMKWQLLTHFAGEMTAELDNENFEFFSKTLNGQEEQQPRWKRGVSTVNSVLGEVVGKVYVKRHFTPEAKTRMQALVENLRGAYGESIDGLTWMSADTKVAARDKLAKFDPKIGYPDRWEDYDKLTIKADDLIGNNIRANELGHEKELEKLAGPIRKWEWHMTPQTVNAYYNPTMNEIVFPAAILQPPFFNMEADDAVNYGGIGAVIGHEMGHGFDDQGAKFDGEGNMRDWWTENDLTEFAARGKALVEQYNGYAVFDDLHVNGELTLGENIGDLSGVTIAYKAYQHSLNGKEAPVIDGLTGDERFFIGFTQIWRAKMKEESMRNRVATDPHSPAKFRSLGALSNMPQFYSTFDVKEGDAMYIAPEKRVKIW
Assay: residual peptidase activity, HPLC of product FSP
Assay type: biochemical
Excerpt: residual peptidase activity, HPLC of product FSP on PepS

## CC(C)C[C@H](NP(=O)(O)O[C@@H]1O[C@@H](C)[C@H](O)[C@@H](O)[C@H]1O)C(=O)N[C@@H](Cc1c[nH]c2ccccc12)C(=O)O [Phosphoramidon]
  remaining activity at 10 µM: 4.3 ± 0.4%
